How the values were obtained:
[1] = target: T1, Kit D816V (HMC1.2 cells, Kit V560G and D816V) (Homo sapiens, UniProt P10721, D816V/V560G); assay: HMC1.2 autophosphorylation assay (AlphaLISA, phospho-Y719 c-Kit); assay type: cell-based; settings: Kit autophosphorylation at tyrosine 719, 90 minutes, read-out: Cellular Activity
T1 construct: endogenous in cells; host or cells: HMC1.2 cells
Method: HMC1.2 Autophosphorylation Assay:
10,000 HMC1.2 cells were incubated in 22 ul culture media (phenol-red free IMDM, no serum) in each well of a 384-well plate and serum starved overnight in a tissue culture incubator (5% CO2, 37° C.). A 10-point dose concentration series of compound (25 uM-95.4 pM) were then added to the cells in a volume of 3.1 ul to each well (0.25% DMSO final concentration). After 90 minutes, 6 ul of 5× AlphaLISA Lysis Buffer (Perkin Elmer) supplemented with a protease and phosphatase inhibitor cocktail (Cell Signaling Technologies) was added to each well and shaken at 450 rpm for 15 minutes at 4° C. 10 ul of phospho-Y719 c-Kit and total c-Kit antibodies (15 nM final concentration, Cell Signaling Technologies) and 50 ug/ml AlphaLISA rabbit acceptor beads (Perkin Elmer) were added to each well and shaken at 300 rpm at room temperature for 2 hours. 10 ul of 100 ug/ml streptavidin donor beads (Perkin Elmer) were added to each well, blocked from light with aluminum adhesive and shaken at 300 rpm at room temperature for 2 hours. Fluorescence signal was obtained on Envision (Perkin Elmer) by AlphaScreen 384 well HTS protocol.
This cell line contains Kit mutated at positions V560G and D816V resulting in constitutive activation of the kinase. The following compounds were tested in an assay to measure direct inhibition of Kit D816V kinase activity by assaying Kit autophosphorylation at tyrosine 719 on the Kit protein.

D816V Kit = target: T2, D816V Kit (Homo sapiens, UniProt P10721, D816V); assay: Kit D816V assay at Km (Caliper electrophoretic mobility shift); assay type: biochemical; settings: 15 uM ATP, 25 C, 90 minutes
T2 construct: purchased Carna Bioscience 08-156
T2 sequence (P10721 26-976 D816V): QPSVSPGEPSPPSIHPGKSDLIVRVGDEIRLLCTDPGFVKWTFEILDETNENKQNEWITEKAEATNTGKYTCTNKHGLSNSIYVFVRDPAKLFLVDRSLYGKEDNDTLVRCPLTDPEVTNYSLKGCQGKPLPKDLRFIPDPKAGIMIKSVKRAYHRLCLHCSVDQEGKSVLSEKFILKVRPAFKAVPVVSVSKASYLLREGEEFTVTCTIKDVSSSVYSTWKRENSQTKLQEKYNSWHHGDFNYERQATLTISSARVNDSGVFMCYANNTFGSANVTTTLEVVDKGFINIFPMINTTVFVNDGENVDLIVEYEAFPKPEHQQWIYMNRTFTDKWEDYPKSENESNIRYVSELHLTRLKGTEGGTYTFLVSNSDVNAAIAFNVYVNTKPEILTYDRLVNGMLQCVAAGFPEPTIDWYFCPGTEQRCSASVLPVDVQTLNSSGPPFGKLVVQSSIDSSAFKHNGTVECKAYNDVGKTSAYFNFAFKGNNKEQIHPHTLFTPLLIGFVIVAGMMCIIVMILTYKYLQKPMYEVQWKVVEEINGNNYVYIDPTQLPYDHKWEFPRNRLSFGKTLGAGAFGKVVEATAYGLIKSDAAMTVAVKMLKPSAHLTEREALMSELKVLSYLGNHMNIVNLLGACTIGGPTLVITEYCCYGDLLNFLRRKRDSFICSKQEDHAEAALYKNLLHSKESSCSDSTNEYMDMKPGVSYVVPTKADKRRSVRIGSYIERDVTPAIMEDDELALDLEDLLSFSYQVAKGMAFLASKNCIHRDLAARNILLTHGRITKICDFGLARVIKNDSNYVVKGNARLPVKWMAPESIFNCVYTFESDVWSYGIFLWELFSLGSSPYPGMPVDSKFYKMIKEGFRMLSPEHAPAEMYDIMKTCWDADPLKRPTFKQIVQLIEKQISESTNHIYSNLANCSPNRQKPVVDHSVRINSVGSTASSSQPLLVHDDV
Method: In order to assess the activity of chemical compounds against the relevant kinase of interest, the Caliper LifeSciences electrophoretic mobility shift technology platform is used. Fluorescently labeled substrate peptide is incubated in the presence of kinase and ATP so that a […] proportion of the peptide is phosphorylated. At the end of the reaction, the mix of phosphorylated (product) and non-phosphorylated (substrate) peptides are passed through the microfluidic system of the Caliper EZ Reader 2, under an applied potential difference. The presence of the phosphate group on the product peptide provides a difference in mass and charge between those of the substrate peptide, resulting in a separation of the substrate and product pools in the sample. As the pools pass a LEDS within the instrument, these pools are detected and resolved as separate peaks. The ratio between these peaks therefore reflects the activity of the chemical matter at that concentration in that well, under those conditions.
The reaction was stopped by the addition of 70 ul of Stop buffer (100 mM HEPES pH 7.5, 0.015% Brij 35, 35 mM EDTA and 0.2% of Coating Reagent 3 (Caliper Lifesciences)). The plate was then read on a Caliper EZReader 2 (protocol settings: −1.9 psi, upstream voltage −700, downstream voltage −3000, post sample sip 35 s).

T1 sequence (P10721 26-976 V560G/D816V): as the sequence (P10721 26-976 D816V) above, with V535G counted along it

Row | SMILES | IC50 [1] | IC50 (D816V Kit)
1 | Cn1cc(Nc2ncnc(N3CCN(c4ncc([C@@](C)(O)c5ccc(F)cc5)cn4)CC3)n2)cn1 (single isomer, unassigned) [Compound 38] | 0.01 to 0.1 µM | < 0.001 µM
2 | C[C@@](O)(c1ccc(F)cc1)c1cnc(N2CCN(c3ncnc(Nc4cnn(C[C@@H]5CNCCO5)c4)n3)CC2)nc1 (single isomer, unassigned) [Compound 270] | – | 0.00101 to 0.01 µM
3 | CNc1ncnc(N2CCN(c3ncc(Cc4ccccc4)c(N)n3)CC2)n1 [Compound 1] | – | > 0.1 µM
4 | c1cnc(N2CCN(c3ncnc(Nc4ccc5c(c4)CNCC5)n3)CC2)nc1 [Compound 2] | 1 to 10 µM | 0.00101 to 0.01 µM
5 | Nc1nc(N2CCN(c3ncnc(NC4CC4)n3)CC2)ncc1Cc1ccccc1 [Compound 3] | – | > 0.1 µM
6 | c1cnc(N2CCN(c3ncnc(Nc4cnn(C[C@@H]5CNCCO5)c4)n3)CC2)nc1 [Compound 6] | > 10 µM | > 0.1 µM
7 | Clc1ncc(N2CCN(c3ncnc(Nc4ccc5c(c4)CNCC5)n3)CC2)nn1 [Compound 8] | – | 0.01 to 0.1 µM
8 | Cc1cc(Nc2ncnc(N3CCN(c4ncc(Cc5ccccc5)cn4)CC3)n2)no1 [Compound 11] | – | 0.01 to 0.1 µM
9 | COc1cc(Nc2ncnc(N3CCN(c4ncc(Cc5ccccc5)cn4)CC3)n2)ccn1 [Compound 17] | 1 to 10 µM | 0.00101 to 0.01 µM
10 | Clc1ncc(N2CCN(c3ncnc(Nc4cnn(CC5CNCCO5)c4)n3)CC2)nn1 (centres unmarked) [Compound 18] | > 10 µM | > 0.1 µM
11 | c1nc(Nc2cnn(CC3CNCCO3)c2)nc(N2CCN(c3ncc(C4CC4)cn3)CC2)n1 (centres unmarked) [Compound 19] | > 10 µM | 0.01 to 0.1 µM
12 | Cc1[nH]ncc1Nc1ncnc(N2CCN(c3ncc(Sc4ccccc4F)cn3)CC2)n1 [Compound 20] | 0.01 to 0.1 µM | < 0.001 µM
13 | c1ccc(Cc2cnc(N3CCN(c4ncnc(Nc5ccc6cn[nH]c6c5)n4)CC3)nc2)cc1 [Compound 21] | 0.1 to 1 µM | 0.00101 to 0.01 µM
14 | c1ccc(Cc2cnc(N3CCN(c4ncnc(Nc5cnn(C6CNC6)c5)n4)CC3)nc2)cc1 [Compound 27] | 0.01 to 0.1 µM | 0.00101 to 0.01 µM
15 | c1ccc(Cc2cnc(N3CCN(c4ncnc(Nc5cnn(C6COC6)c5)n4)CC3)nc2)cc1 [Compound 28] | 0.01 to 0.1 µM | < 0.001 µM
16 | C[C@](N)(c1ccc(F)cc1)c1cnc(N2CCN(c3ncnc(Nc4ccccc4)n3)CC2)nc1 [Compound 29] | 0.01 to 0.1 µM | < 0.001 µM
17 | C[C@@H](O)Cn1cc(Nc2ncnc(N3CCN(c4ncc(Cc5ccccc5)cn4)CC3)n2)cn1 [Compound 32] | 0.01 to 0.1 µM | 0.00101 to 0.01 µM
18 | C[C@H](O)Cn1cc(Nc2ncnc(N3CCN(c4ncc(Cc5ccccc5)cn4)CC3)n2)cn1 [Compound 33] | 0.01 to 0.1 µM | 0.00101 to 0.01 µM
19 | Nc1nc(N2CCN(c3ncnc(Nc4cnn(CC5CNCCO5)c4)n3)CC2)ncc1Cl (centres unmarked) [Compound 34] | 1 to 10 µM | 0.01 to 0.1 µM
20 | CN1CCC(CCNc2ncnc(N3CCN(c4ncc(Cc5ccccc5)cn4)CC3)n2)CC1 [Compound 35] | > 10 µM | > 0.1 µM
21 | Cn1cc(Nc2ncnc(N3CCN(c4ncc([C@@](C)(N)c5ccc(F)cc5)cn4)CC3)n2)cn1 [Compound 36] | < 0.01 µM | < 0.001 µM
22 | Cn1cc(Nc2ncnc(N3CCN(c4ncc([C@](C)(O)c5ccc(F)cc5)cn4)CC3)n2)cn1 [Compound 39] | 0.01 to 0.1 µM | < 0.001 µM
23 | c1cncc(Cc2cnc(N3CCN(c4ncnc(Nc5ccc6c(c5)CNCC6)n4)CC3)nc2)c1 [Compound 45] | 0.01 to 0.1 µM | 0.00101 to 0.01 µM
24 | OCC(O)c1ccc(Nc2ncnc(N3CCN(c4ncc(Cc5ccccc5)cn4)CC3)n2)cc1 (centres unmarked) [Compound 55] | 0.01 to 0.1 µM | < 0.001 µM
25 | OCCNc1ccc(Nc2ncnc(N3CCN(c4ncc(Cc5ccccc5)cn4)CC3)n2)cn1 [Compound 58] | 0.1 to 1 µM | 0.00101 to 0.01 µM
26 | CC(C)(O)Cn1cc(Nc2ncnc(N3CCN(c4ncc(Cc5ccccc5)cn4)CC3)n2)cn1 [Compound 62] | 0.01 to 0.1 µM | < 0.001 µM

Row | SMILES | IC50 [1] | IC50 (D816V Kit)
27 | C(#CC1CC1)c1cnc(N2CCN(c3ncnc(Nc4cnn(C[C@@H]5CNCCO5)c4)n3)CC2)nc1 [Compound 63, (S)-4-(4-(5-(cyclopropylethynyl)pyrimidin-2-yl)piperazin-1-yl)-N-(1-(morpholin-2-ylmethyl)-1H-pyrazol-4-yl)-1,3,5-triazin-2-amine] | – | > 0.1 µM
28 | OC[C@@H](O)Cn1cc(Nc2ncnc(N3CCN(c4ncc(Cc5ccccc5)cn4)CC3)n2)cn1 [Compound 65] | 0.01 to 0.1 µM | < 0.001 µM
29 | OC[C@H](O)Cn1cc(Nc2ncnc(N3CCN(c4ncc(Cc5ccccc5)cn4)CC3)n2)cn1 [Compound 66] | 0.01 to 0.1 µM | < 0.001 µM
30 | c1nc(Nc2cnn(C[C@@H]3CNCCO3)c2)nc(N2CCN(c3ncc(CCC4CC4)cn3)CC2)n1 [Compound 67] | – | 0.01 to 0.1 µM
31 | Cc1nc(N2CCN(c3ncnc(Nc4ccc5c(c4)CNCC5)n3)CC2)ncc1Cc1ccccc1 [Compound 70] | 0.1 to 1 µM | 0.00101 to 0.01 µM
32 | CC(c1ccccc1)c1cnc(N2CCN(c3ncnc(Nc4ccc5c(c4)CNCC5)n3)CC2)nc1 (centres unmarked) [Compound 71] | 0.01 to 0.1 µM | < 0.001 µM
33 | c1ccc(Cc2cnc(N3CCN(c4ncnc(Nc5ccc6c(c5)CCCNC6)n4)CC3)nc2)cc1 [Compound 72] | 0.01 to 0.1 µM | < 0.001 µM
34 | c1ccc(Cc2cnc(N3CCN(c4ncnc(Nc5ccc(OC6CNC6)cc5)n4)CC3)nc2)cc1 [Compound 77] | 0.01 to 0.1 µM | 0.00101 to 0.01 µM
35 | Nc1nc(N2CCN(c3ncnc(Nc4cnc5c(c4)CNCC5)n3)CC2)ncc1Cc1ccccc1 [Compound 78] | 0.01 to 0.1 µM | < 0.001 µM
36 | OC1(c2ccc(Nc3ncnc(N4CCN(c5ncc(Cc6ccccc6)cn5)CC4)n3)cc2)COC1 [Compound 79] | 0.01 to 0.1 µM | 0.00101 to 0.01 µM
37 | Fc1cccc(Cc2cnc(N3CCN(c4ncnc(Nc5ccc6c(c5)CNCC6)n4)CC3)nc2)c1 [Compound 80] | 0.01 to 0.1 µM | 0.00101 to 0.01 µM
38 | C[C@H](O)CNc1ccc(Nc2ncnc(N3CCN(c4ncc(Cc5ccccc5)cn4)CC3)n2)cc1 [Compound 81] | 0.01 to 0.1 µM | < 0.001 µM
39 | C[C@@H](O)CNc1ccc(Nc2ncnc(N3CCN(c4ncc(Cc5ccccc5)cn4)CC3)n2)cc1 [Compound 82] | 0.01 to 0.1 µM | < 0.001 µM
40 | CC1(Cn2cc(Nc3ncnc(N4CCN(c5ncc(Cc6ccccc6)cn5)CC4)n3)cn2)COC1 [Compound 87] | 0.01 to 0.1 µM | 0.00101 to 0.01 µM
41 | Nc1nc(N2CCN(c3ncnc(Nc4cnn(CC5CN(C=O)CCO5)c4)n3)CC2)ncc1Cl (centres unmarked) [Compound 90] | – | 0.01 to 0.1 µM
42 | Brc1cnc(N2CCN(c3ncnc(Nc4cnn(C[C@@H]5CNCCO5)c4)n3)CC2)nc1 [Compound 91] | 1 to 10 µM | 0.00101 to 0.01 µM
43 | OC[C@@H](O)c1ccc(Nc2ncnc(N3CCN(c4ncc(Cc5ccc(F)cc5)cn4)CC3)n2)cc1 [Compound 92] | 0.01 to 0.1 µM | < 0.001 µM
44 | OC[C@H](O)c1ccc(Nc2ncnc(N3CCN(c4ncc(Cc5ccc(F)cc5)cn4)CC3)n2)cc1 [Compound 93] | 0.01 to 0.1 µM | < 0.001 µM
45 | c1ccc(Cc2cnc(N3CCN(c4ncnc(Nc5ccc6c(c5)CNCC65CC5)n4)CC3)nc2)cc1 [Compound 97] | 0.01 to 0.1 µM | < 0.001 µM
46 | CC1(C)CNCc2cc(Nc3ncnc(N4CCN(c5ncc(Cc6ccccc6)cn5)CC4)n3)ccc21 [Compound 99] | < 0.01 µM | 0.00101 to 0.01 µM
47 | CC(O)c1ccc(Nc2ncnc(N3CCN(c4ncc([C@@](C)(N)c5ccc(F)cc5)cn4)CC3)n2)cc1 (some centres unmarked) [Compound 140] | – | < 0.001 µM
48 | Cc1c(Nc2ncnc(N3CCN(c4ncc(Br)cn4)CC3)n2)cnn1C[C@@H]1CNCCO1 [Compound 142] | – | 0.01 to 0.1 µM
49 | C[C@@H]1CN(c2ncnc(Nc3cnn(C[C@@H]4CNCCO4)c3)n2)CCN1c1ncc(Br)c(N)n1 [Compound 194] | – | 0.01 to 0.1 µM
50 | OC[C@H]1CN(c2ncnc(Nc3cnn(CC4CNCCO4)c3)n2)CCN1c1ncc(Cc2ccccc2)cn1 (some centres unmarked) [Compound 247] | – | 0.01 to 0.1 µM
51 | FC(F)(c1ccccc1)c1cnc(N2CCN(c3ncnc(Nc4cnn(C[C@@H]5CNCCO5)c4)n3)CC2)nc1 [Compound 254] | – | 0.00101 to 0.01 µM
